The results in this text go back to patent publication US10100050B2 (CHIESI FARMACEUTICI S.P.A., priority 2015, dated 2018).

Counter-ions that a name gives are not always drawn.

In one assay the target is T1, p38alpha (Homo sapiens, UniProt Q16539).
T1 construct: purchased Invitrogen PV3304
The experiment in a line: P38alpha enzyme inhibition assay (Alphascreen kinase activity assay). The assay is classed as biochemical. Particulars: IC50 classes; 2 hours preincubation at 25° C., 250 μM ATP; read-out: p38α inhibition. On the procedure: P38alpha Enzyme Inhibition Assay
The inhibitory activity of compounds was determined using an Alphascreen® (Perkin Elmer) based kinase activity assay. Kinase reactions consisted of 25 mM HEPES pH 7.5, 10 mM MgCl2, 100 μM Na3VO4, 2 mM DTT, 0.05 mg/ml Tween […] (Invitrogen, PV3304), 1% DMSO and 0.3 μg/ml ATF-2 fusion protein (New England Biolabs, 9224). Compounds were incubated under these conditions for 2 hours, at 25° C., prior to the initiation of the kinase activity by the addition of the 250 μM ATP. Reaction volumes were 20 uL. After 1 hr at 25° C. reactions were stopped by the adding 10 uL of 25 mM HEPES pH 7.5 containing 62.5 mM EDTA, 0.05% Triton X-100, 10% BSA and 0.83 ng/uL anti-phospho-ATF2 antibody (Abcam, ab28812). Detection was performed by measuring luminescence following the addition of Alphascreen Donor beads (Perkin Elmer 6765300) and Protein A Alphascreen Acceptor beads (Perkin Elmer 6760137), both at a final concentration of 20 ug/ml. IC50 values were determined from concentration-response curves.
A general note: In Alpha technology, singlet oxygen from a donor bead excites a nearby acceptor bead.

The test system of assay [1] is Peripheral Blood Mononuclear Cells (PBMCs). Briefly: LPS-stimulated PBMC TNFα release assay. Particulars: IC50 classes; human PBMC, LPS 10 ng/ml, 18 h; read-out: LPS-stimulated PBMC TNFα release inhibition. The assay is classed as cell-based. On the procedure: 1-10 nM ‘+’; • <1 nM ‘++’ LPS-Stimulated PBMC TNFα Release Assay
Peripheral Blood Mononuclear Cells (PBMCs) were isolated from healthy human volunteer blood using a standard density gradient centrifugation technique. Citrated blood was placed onto Histopaque™ and centrifuged. The PBMCs were removed from the density gradient interface and washed in phosphate buffered saline (PBS). The PBMCs were suspended in RPMI 1640 medium (without serum), dispensed into a 96-well plate and incubated at 37° C. for 3 h in a humidified incubator. After incubation, the medium was replaced (with medium containing 1% foetal bovine serum) and the plate incubated at 37° C., for 1 h, in the presence of test compound or the appropriate vehicle. LPS (10 ng/ml), or an appropriate vehicle control, was then added to the cells and the plate returned to the incubator for 18 h. Cell-free supernatants were removed and assayed for TNFα levels using MSD plates on the Sector Imager 6000 (MesoScale).
A dose response curve to each test compound was performed and the effect of compound in each experiment was expressed as a percentage inhibition of the control TNFα release. Dose response curves were plotted and compound potency (IC50) was determined. Compounds were tested in at least three separate experiments.

T1 sequence (Q16539 whole entry): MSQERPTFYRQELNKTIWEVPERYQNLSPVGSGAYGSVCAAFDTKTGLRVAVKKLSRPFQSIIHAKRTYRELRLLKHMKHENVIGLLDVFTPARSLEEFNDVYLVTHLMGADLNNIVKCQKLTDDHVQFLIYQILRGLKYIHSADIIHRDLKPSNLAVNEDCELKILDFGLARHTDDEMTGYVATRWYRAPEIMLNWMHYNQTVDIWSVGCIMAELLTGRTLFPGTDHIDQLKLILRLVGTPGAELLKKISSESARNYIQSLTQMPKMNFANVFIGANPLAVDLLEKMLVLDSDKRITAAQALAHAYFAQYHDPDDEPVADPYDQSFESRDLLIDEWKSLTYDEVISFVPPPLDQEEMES

Consider `CC(C)(C)c1cc(NC(=O)N[C@H]2CC[C@@H](Oc3ccc4nnc([C@]5(C)CCCN5CCO)n4c3)c3ccccc32)cc(NS(C)(=O)=O)c1` [Example 32, N-{3-tert-Butyl-5-[3-((1S,4R)-4-{3-[(S)-1-(2-hydroxy-ethyl)-2-methyl-pyrrolidin-2-yl]-[1,2,4]triazolo[4,3-a]pyridin-6-yloxy}-1,2,3,4-tetrahydro-naphthalen-1-yl)-ureido]-phenyl}-methanesulfonamide], for which the figures for the IC50 (on p38alpha; in assay [1]) were < 1 nM and 1 to 5 nM, respectively.
Taken in the same sequence, the figures for `CN1CCC[C@@H]1c1nnc2ccc(O[C@@H]3CC[C@H](NC(=O)Nc4cc(NS(C)(=O)=O)cc(C(C)(C)C)c4)c4ccccc43)cn12` [Example 22] were < 1 nM and 1 to 5 nM.
The like results for `CN1CC(C)(C)C[C@H]1c1nnc2ccc(O[C@@H]3CC[C@H](NC(=O)Nc4cc(NS(C)(=O)=O)cc(C(C)(C)C)c4)c4ccccc43)cn12` [Example 26, N-[3-tert-Butyl-5-(3-{(1S,4R)-4-[3-((S)-1,4,4-trimethyl-pyrrolidin-2-yl)-[1,2,4]triazolo[4,3-a]pyridin-6-yloxy]-1,2,3,4-tetrahydro-naphthalenyl}-ureido)-phenyl]-methanesulfonamide] were, in that order, 1 to 10 nM and 1 to 5 nM.
Take `CC(C)N1CCCC[C@H]1c1nnc2ccc(O[C@@H]3CC[C@H](NC(=O)Nc4cc(NS(C)(=O)=O)cc(C(C)(C)C)c4)c4ccccc43)cn12` [Example 23]: the IC50 at p38alpha is 1 to 10 nM; in assay [1], > 5 nM.
Taken in the same sequence, the figures for `CN1CCC[C@H]1c1nnc2ccc(O[C@@H]3CC[C@H](NC(=O)Nc4cc(C(=O)NCCO)cc(C(C)(C)C)c4)c4ccccc43)cn12` [Example 50, 3-tert-Butyl-N-(2-hydroxy-ethyl)-5-(3-{(1S,4R)-4-[3-((S)-1-methyl-pyrrolidin-2-yl)-[1,2,4]triazolo[4,3-a]pyridin-6-yloxy]-1,2,3,4-tetrahydro-naphthalen-1-yl}-ureido)-benzamide] were < 1 nM and > 5 nM.
For the compound `CC(C)N1CCC[C@@]1(C)c1nnc2ccc(O[C@@H]3CC[C@H](NC(=O)Nc4cc(NS(C)(=O)=O)cc(C(C)(C)C)c4)c4ccccc43)cn12` [Example 28, N-[3-tert-Butyl-5-(3-{(1S,4R)-4-[3-((S)-1-isopropyl-2-methyl-pyrrolidin-2-yl)-[1,2,4]triazolo[4,3-a]pyridin-6-yloxy]-1,2,3,4-tetrahydro-naphthalen-1-yl}-ureido)-phenyl]-methanesulfonamide], the figures for the IC50 (at p38alpha; in assay [1]) were < 1 nM and 1 to 5 nM, respectively.
Taken in the same sequence, the figures for `CN1CCC[C@@H](c2nnc3ccc(O[C@@H]4CC[C@H](NC(=O)Nc5cc(NS(C)(=O)=O)cc(C(C)(C)C)c5)c5ccccc54)cn23)C1` [Example 30, N-[3-tert-Butyl-5-(3-{(1S,4R)-4-[3-((R)-1-methyl-piperidin-3-yl)-[1,2,4]triazolo[4,3-a]pyridin-6-yloxy]-1,2,3,4-tetrahydro-naphthalen-1-yl}-ureido)-phenyl]-methanesulfonamide] were 1 to 10 nM and > 5 nM.
Taken in the same sequence, the figures for `CC(C)(C)c1cc(NC(=O)N[C@H]2CC[C@@H](Oc3ccc4nnc([C@]5(C)CCCN5)n4c3)c3ccccc32)cc(NS(C)(=O)=O)c1` [Example 29, N-[3-tert-Butyl-5-(3-{(1S,4R)-4-[3-((S)-2-methyl-pyrrolidin-2-yl)-[1,2,4]triazolo[4,3-a]pyridin-6-yloxy]-1,2,3,4-tetrahydro-naphthalen-1-yl}-ureido)-phenyl]-methanesulfonamide] were < 1 nM and 1 to 5 nM.
The like results for `CN1CCC[C@H]1c1nnc2ccc(O[C@@H]3CC[C@H](NC(=O)Nc4cc(C(N)=O)cc(C(C)(C)C)c4)c4ccccc43)cn12` [Example 52, 3-tert-Butyl-5-(3-{(1S,4R)-4-[3-((S)-1-methyl-pyrrolidin-2-yl)-[1,2,4]triazolo[4,3-a]pyridin-6-yloxy]-1,2,3,4-tetrahydro-naphthalen-1-yl}-ureido)-benzamide] were, in that order, < 1 nM and 1 to 5 nM.
In the case of `COc1c(NC(=O)N[C@H]2CC[C@@H](Oc3ccc4nnc([C@@H]5CCCN5C)n4c3)c3ccccc32)cc(C(C)(C)C)cc1N(CCO)S(C)(=O)=O` [Example 17, N-[5-tert-Butyl-2-methoxy-3-(3-{(1S,4R)-4-[3-((S)-1-methyl-pyrrolidin-2-1)-[1,2,4]triazolo[4,3-a]pyridin-6-yloxy]-1,2,3,4-tetrahydro-naphthalen-1-yl}-ureido)-phenyl]-N-(2-hydroxy-ethyl)-methanesulfonamide formate salt], the IC50 at p38alpha is 1 to 10 nM; in assay [1] it was > 5 nM.
The like results for `CN(C)C(C)(C)c1nnc2ccc(O[C@@H]3CC[C@H](NC(=O)Nc4cc(N)cc(C(C)(C)C)c4)c4ccccc43)cn12` [Example 34] were, in that order, < 1 nM and < 1 nM.
The like results for `COC(=O)c1cc(NC(=O)N[C@H]2CC[C@@H](Oc3ccc4nnc([C@@H]5CCCN5C)n4c3)c3ccccc32)cc(C(C)(C)C)c1` [Example 40, 3-tert-Butyl-5-(3-{(1S,4R)-4-[3((S)-1-methyl-pyrrolidin-2-yl)-[1,2,4]triazolo[4,3-a]pyridin-6-yloxy]-1,2,3,4-tetrahydro-naphthalen-1-yl}-ureido)-benzoic acid methyl ester] were, in that order, < 1 nM and 1 to 5 nM.
Taken in the same sequence, the figures for `COc1c(NC(=O)N[C@H]2CC[C@@H](Oc3ccc4nnc(N5CCCCC5)n4c3)c3ccccc32)cc(C(C)(C)C)cc1N(CCN(C)C)S(C)(=O)=O` [Example 60, N-(5-tert-Butyl-2-methoxy-3-{3-[(1S,4R)-4-(3-piperidin-1-yl-[1,2,4]triazolo[4,3,a]pyridin-6-yloxy)-1,2,3,4-tetrahydro-naphthalen-1-yl]-ureido}-phenyl-N-(2-dimethylamino-ethyl)-methanesulfonamide formate salt] were 1 to 10 nM and > 5 nM.
As to `CN1CCC[C@@]1(C)c1nnc2ccc(O[C@@H]3CC[C@H](NC(=O)Nc4cc(N5CCOCC5)cc(C(C)(C)C)c4)c4ccccc43)cn12` [Example 48, 1-(3-tert-Butyl-5-morpholin-4-yl-phenyl)-3-{(1S,4R)-4-[3-((S)-1,2-dimethyl-pyrrolidin-2-yl)-[1,2,4]triazolo[4,3-a]pyridin-6-yloxy]-1,2,3,4-tetrahydro-naphthalen-1-yl}-urea], the IC50 (on p38alpha; in assay [1]) was < 1 nM each time.
